Measurements published in patent publication US8242087B2, “Phosphate modified nucleosides useful as substrates for polymerases and as antiviral agents” (priority 2007, dated 2012).

Tests used:
[1] = target: T1, Therminator DNA polymerase (Thermococcus sp., UniProt Q56366, A485L/D141A/E143A); test: Single nucleotide incorporation by Therminator DNA polymerase; format: biochemical, (9° N-7) Thermococcus sp.
T1 construct: purchased Westburg (NEB)
Procedure: (§1) In the case of Therminator DNA polymerase, the enzyme was obtained from Westburg (NEB) (2 U/μL) and the reactions were carried out in a 10× Thermopol reaction buffer containing 20 mM TRIS.HCl, 10 mM KCl, 2 mM MgSO4, 0.1% Triton X-100, pH 8.8. The final concentration of the Therminator DNA pol in the reaction mixture was 8.33×10^−4 U/μL. The polymerase reaction involving Therminator DNA polymerase or any other thermostable polymerase (Vent (exo^−), Taq DNA polymerase) was carried out in a similar way as the HIV RT reaction with some modifications. The dNTP solutions and the primer/template/DNA polymerase mixture solutions were topped with mineral oil (30-60 μL) and pre-incubated at 70° C. for 2 minutes. The polymerase reactions were performed at 70° C. as well.

[2] = target: Vent (exo−) DNA polymerase (Thermococcus litoralis, UniProt P30317, D141A/DEL1082-1471/DEL495-1032/E143A); test: Single nucleotide incorporation by Vent (exo−) DNA polymerase; format: biochemical
Procedure: (§2) Reaction conditions: Primer (P1) was 5′-labeled with ^33P followed by annealing to a template T1; 125 nM primer/template (P1/T1), [Taq]=0.005 U/μL, [Vent]=0.005 U/μL, [KF]=0.05 U/μL; time intervals: 5, 15, 30, 60, 90 and 120 minutes.
as §1

KF (exo−) DNA polymerase = target: T2, KF (exo−) DNA polymerase (Escherichia coli, UniProt P00582, D355A/E357A); test: Single nucleotide incorporation by KF (exo−) DNA polymerase; format: biochemical; settings: 60 minutes
T2 construct: Klenow Fragment (KF) (exo^−) DNA polymerase
Procedure: as §2

Taq DNA polymerase = Taq DNA polymerase (Thermus aquaticus, UniProt P19821); test: Single nucleotide incorporation by Taq DNA polymerase; format: biochemical
Procedure: as §2, §1

[3] = target: T3, HIV reverse transcriptase (Human immunodeficiency virus type 1 group M subtype B, UniProt P03366); test: Gel-based single-nucleotide-incorporation and control assays with HIV RT (Example 4); format: biochemical, HIV-1
T3 construct: performed for the enzyme HIV reverse transcriptase (GE Healthcare, 30 U/4 stock solution); purchased GE Healthcare
Procedure: End-labeled primers were annealed to their template by combining primer and templates in a molar ratio of 1:2 and heating the mixture to 70° C. for 10 minutes, followed by slow cooling to room temperature over a period of 2.5 hours. For the incorporation of L-Asp-dGMP (9), L-Asp-dTMP (10), L-Asp-dCMP (11), and N-Me-Asp-dAMP (12) (see FIG. 13), the primer P1 was annealed to templates T1, T2, T4 or A and P2 was annealed to T4. A series of 20 μL reactions was performed for the enzyme HIV reverse transcriptase (GE Healthcare, 30 U/4 stock solution). The final mixture contained 125 nM primer-template complex, RT buffer (250 mM TrisHCl, 250 mM KCl, 50 mM MgCl2, 2.5 mM spermidine, 50 mM DTT, pH 8.3), 0.03 U/μL HIV RT and different amino acid phosphoramidates building blocks concentrations. In the control reaction with the natural nucleotide, 10 μM or 50 μM dGTP, dTTP, dATP or dCTP were used. The mixture was incubated at 37° C. […] and aliquots were quenched after 5, 10, 20, 30, 60 and 120 minutes respectively.
All polymerase reactions (3 μL) were quenched by the addition of 10 μL of loading buffer (90% formamide, 0.05% bromophenol blue, 0.05% xylene cyanol and 50 mM EDTA). Samples were heated at 70° C. for 5 minutes prior to analysis by electrophoresis for 2-3 hours at 2000 V on a 0.4 mm 20% denaturing gel in the presence of a 100 mM Tris-borate, 2.5 mM EDTA buffer, pH 8.3. Products were visualized by phosphor imaging. The amount of radioactivity in the bands corresponding to the products of enzymatic reactions was determined by using the Optiquant image analysis software (Perkin Elmer).

[4] = target: T3, HIV reverse transcriptase; test: as above; format: biochemical, HIV-1; settings: P1/T2; 9 incorporated first (two hours), then compound 1 added, two more hours
[5] = target: T1, Therminator DNA polymerase; test: Primer extension by Therminator DNA polymerase (P1/T3, P1/T5); format: biochemical, (9° N-7) Thermococcus sp.
Procedure: Primer extension study with HIV RT and Therminator DNA polymerase was performed in a fashion similar to the single nucleotide incorporation experiments. Two sets of primer/template complexes were used: P1/T3 and P1/T5.
as §1

T1 sequence (Q56366 whole entry D141A/E143A/A485L): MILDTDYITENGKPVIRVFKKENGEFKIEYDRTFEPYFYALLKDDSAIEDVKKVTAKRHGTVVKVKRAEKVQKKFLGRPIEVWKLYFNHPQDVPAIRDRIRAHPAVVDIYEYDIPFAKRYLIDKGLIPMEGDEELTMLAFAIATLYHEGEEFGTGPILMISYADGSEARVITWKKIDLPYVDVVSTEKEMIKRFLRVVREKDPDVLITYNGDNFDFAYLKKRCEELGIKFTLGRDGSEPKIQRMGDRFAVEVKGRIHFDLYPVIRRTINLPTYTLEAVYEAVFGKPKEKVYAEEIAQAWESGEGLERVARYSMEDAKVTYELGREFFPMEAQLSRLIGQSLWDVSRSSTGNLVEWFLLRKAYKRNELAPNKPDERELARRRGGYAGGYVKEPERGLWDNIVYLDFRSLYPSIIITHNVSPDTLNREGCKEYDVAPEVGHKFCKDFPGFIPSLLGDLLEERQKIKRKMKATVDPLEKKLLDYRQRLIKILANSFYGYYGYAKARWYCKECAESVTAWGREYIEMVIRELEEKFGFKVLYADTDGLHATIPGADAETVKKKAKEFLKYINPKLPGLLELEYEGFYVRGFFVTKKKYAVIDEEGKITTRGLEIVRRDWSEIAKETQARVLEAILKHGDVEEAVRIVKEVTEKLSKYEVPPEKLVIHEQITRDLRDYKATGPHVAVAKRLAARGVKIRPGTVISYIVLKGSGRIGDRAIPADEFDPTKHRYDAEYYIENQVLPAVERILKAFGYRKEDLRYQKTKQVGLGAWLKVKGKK
Chain of Vent (exo−) DNA polymerase (P30317 other isoform, or with tags, fused parts or gaps D141A/E143A/DEL495-1032/DEL1082-1471): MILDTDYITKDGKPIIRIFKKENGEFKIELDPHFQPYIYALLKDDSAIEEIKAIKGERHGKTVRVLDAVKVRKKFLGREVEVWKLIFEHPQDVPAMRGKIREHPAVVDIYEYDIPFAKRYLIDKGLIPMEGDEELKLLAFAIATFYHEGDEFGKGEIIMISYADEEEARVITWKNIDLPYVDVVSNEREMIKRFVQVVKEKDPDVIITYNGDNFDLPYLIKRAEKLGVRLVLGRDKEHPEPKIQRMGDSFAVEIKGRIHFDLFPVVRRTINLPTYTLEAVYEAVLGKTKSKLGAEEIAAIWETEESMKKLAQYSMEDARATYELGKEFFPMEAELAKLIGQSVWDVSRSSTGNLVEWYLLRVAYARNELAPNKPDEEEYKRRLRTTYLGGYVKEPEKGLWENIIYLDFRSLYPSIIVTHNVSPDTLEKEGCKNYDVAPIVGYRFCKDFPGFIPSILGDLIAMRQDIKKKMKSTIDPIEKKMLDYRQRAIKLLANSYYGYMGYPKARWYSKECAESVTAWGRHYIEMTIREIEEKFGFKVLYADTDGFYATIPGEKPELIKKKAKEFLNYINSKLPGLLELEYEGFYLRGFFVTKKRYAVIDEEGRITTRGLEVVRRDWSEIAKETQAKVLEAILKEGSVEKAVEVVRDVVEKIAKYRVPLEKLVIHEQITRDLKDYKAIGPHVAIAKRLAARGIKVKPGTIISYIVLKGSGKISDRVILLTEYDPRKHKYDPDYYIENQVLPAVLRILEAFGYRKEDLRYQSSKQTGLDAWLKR
Chain of Taq DNA polymerase (P19821 whole entry): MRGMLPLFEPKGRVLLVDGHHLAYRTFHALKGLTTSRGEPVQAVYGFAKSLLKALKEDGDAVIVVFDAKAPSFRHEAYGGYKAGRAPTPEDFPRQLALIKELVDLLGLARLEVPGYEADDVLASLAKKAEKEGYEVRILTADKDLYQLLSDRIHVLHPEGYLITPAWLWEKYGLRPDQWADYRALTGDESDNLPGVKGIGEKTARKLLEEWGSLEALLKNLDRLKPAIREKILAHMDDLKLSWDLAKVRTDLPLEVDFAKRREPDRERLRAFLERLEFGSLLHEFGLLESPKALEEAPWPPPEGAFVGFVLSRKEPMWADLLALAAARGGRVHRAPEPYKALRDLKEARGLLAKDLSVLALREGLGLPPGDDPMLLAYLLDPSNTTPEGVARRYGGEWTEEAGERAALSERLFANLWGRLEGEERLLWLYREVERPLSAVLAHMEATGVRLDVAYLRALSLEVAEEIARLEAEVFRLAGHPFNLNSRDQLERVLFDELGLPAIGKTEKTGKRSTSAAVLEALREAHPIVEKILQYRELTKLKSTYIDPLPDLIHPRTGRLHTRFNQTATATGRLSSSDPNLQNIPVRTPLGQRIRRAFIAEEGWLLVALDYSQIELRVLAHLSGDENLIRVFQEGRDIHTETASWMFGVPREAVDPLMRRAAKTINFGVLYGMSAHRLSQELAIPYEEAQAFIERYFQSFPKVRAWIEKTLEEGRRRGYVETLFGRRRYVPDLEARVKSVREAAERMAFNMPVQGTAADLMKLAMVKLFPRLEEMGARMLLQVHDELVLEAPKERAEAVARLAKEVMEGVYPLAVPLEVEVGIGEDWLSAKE
T2 sequence (P00582 324-928 D355A/E357A): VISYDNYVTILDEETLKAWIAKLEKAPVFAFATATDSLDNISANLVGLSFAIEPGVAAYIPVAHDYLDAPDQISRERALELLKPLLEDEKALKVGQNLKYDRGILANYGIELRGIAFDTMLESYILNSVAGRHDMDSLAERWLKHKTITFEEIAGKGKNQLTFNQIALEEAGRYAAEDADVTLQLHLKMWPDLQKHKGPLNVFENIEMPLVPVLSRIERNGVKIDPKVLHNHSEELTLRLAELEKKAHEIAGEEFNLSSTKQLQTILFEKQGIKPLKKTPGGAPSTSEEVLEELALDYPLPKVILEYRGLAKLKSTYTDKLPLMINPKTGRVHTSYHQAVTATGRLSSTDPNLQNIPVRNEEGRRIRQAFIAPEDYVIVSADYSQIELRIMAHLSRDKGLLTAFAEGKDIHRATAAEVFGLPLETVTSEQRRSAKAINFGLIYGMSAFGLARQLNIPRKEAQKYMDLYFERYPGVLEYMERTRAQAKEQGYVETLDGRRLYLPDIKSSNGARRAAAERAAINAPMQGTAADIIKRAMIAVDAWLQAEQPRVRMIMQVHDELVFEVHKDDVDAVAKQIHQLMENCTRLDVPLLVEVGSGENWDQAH

## 2′-deoxy-adenosine-5′-aspartyl-phosphoramidate [Compound 1]
[1]; 60 min, 500 μM nucleoside concentration
  primer extension: 25.2%
[1]; single nucleotide incorporation, P1/T1
  incorporation as Therminator DNA polymerase substrate: act effectively as alternative substrates
[2]
  insertion into a growing primer strand: failed to insert
KF (exo−) DNA polymerase
  conversion of the primer strand: 32.5%
Taq DNA polymerase
  insertion into a growing primer strand: failed to insert
[3]; P1/T1
  base-pairing selectivity of incorporation: inserted selectively against thymine
[3]; primer P1, template A
  incorporation with blunt ended duplex: none of these compounds incorporated at all
[4]
  n+1 product: 20%
  n+2 product: 80%
[5]; T3 template
  primer extension: successfully incorporated
[5]; T5 template, overhang of seven thymidine residues
  number of adenine residues incorporated: up to five adenine residues
